Results taken from the NIST ThermoML archive (doi:10.1021/je0499364).

What was measured:
[1] = Molar enthalpy of transition or fusion; settings: Crystal
[2] = molar heat capacity at constant pressure; settings: 101.33 kPa
[3] = Crystal

CCCCCCCCCC(=O)OC [methyl decanoate]
Settings | Molar enthalpy of transition or fusion [kcal/mol] | Triple point temperature [K]
[1] | 8.58 | –
[3] | – | 260.33

[2]
Settings | molar heat capacity at constant pressure [J/K/mol]
5 K, Crystal | 0.45
10 K, Crystal | 3.7
20 K, Crystal | 20.01
30 K, Crystal | 37.87
40 K, Crystal | 57.28
50 K, Crystal | 75.63
60 K, Crystal | 91.46
70 K, Crystal | 105.95
80 K, Crystal | 119.09
90 K, Crystal | 131.08
100 K, Crystal | 141.62
110 K, Crystal | 151.65
120 K, Crystal | 160.63
130 K, Crystal | 169.23
140 K, Crystal | 177.35
150 K, Crystal | 185.25
160 K, Crystal | 192.99
170 K, Crystal | 200.77
180 K, Crystal | 209.01
190 K, Crystal | 217.44
200 K, Crystal | 226.26
210 K, Crystal | 234.91
220 K, Crystal | 245.06
230 K, Crystal | 256.05
240 K, Crystal | 269.17
250 K, Crystal | 300.63
270 K, Liquid | 361.09
280 K, Liquid | 368.72
290 K, Liquid | 372.12
300 K, Liquid | 376.14
310 K, Liquid | 380.31
320 K, Liquid | 385.19
330 K, Liquid | 389.78
340 K, Liquid | 394.95
350 K, Liquid | 400.2

CCCCCCCCCCCC(=O)OC [methyl dodecanoate]
Settings | Molar enthalpy of transition or fusion [kcal/mol] | Triple point temperature [K]
[1] | 10.3 | –
[3] | – | 278.18

[2]
Settings | molar heat capacity at constant pressure [J/K/mol]
5 K, Crystal | 0.5
10 K, Crystal | 4.31
20 K, Crystal | 19.62
30 K, Crystal | 40.21
40 K, Crystal | 63.08
50 K, Crystal | 85.07
60 K, Crystal | 103.02
70 K, Crystal | 119.02
80 K, Crystal | 134.57
90 K, Crystal | 148.81
100 K, Crystal | 160.46
110 K, Crystal | 171.83
120 K, Crystal | 181.94
130 K, Crystal | 191.82
140 K, Crystal | 201.16
150 K, Crystal | 209.76
160 K, Crystal | 218.85
170 K, Crystal | 227.97
180 K, Crystal | 237.26
190 K, Crystal | 246.66
200 K, Crystal | 256.21
210 K, Crystal | 265.84
220 K, Crystal | 277.21
230 K, Crystal | 288.57
240 K, Crystal | 299.95
250 K, Crystal | 315.69
260 K, Crystal | 335.52
270 K, Crystal | 392.98
280 K, Liquid | 428
290 K, Liquid | 432.76
300 K, Liquid | 438.82
310 K, Liquid | 443.32
320 K, Liquid | 448.38
330 K, Liquid | 453.83
340 K, Liquid | 460.08
350 K, Liquid | 467.86

CCCCCCCCCCCCCCCCCC(=O)OC [methyl octadecanoate]
Settings | Molar enthalpy of transition or fusion [kcal/mol] | Triple point temperature [K]
[1] | 15.86 | –
[3] | – | 311.84

[2]
Settings | molar heat capacity at constant pressure [J/K/mol]
5 K, Crystal | 0.82
10 K, Crystal | 5.96
20 K, Crystal | 26.2
30 K, Crystal | 52.72
40 K, Crystal | 82.6
50 K, Crystal | 112.11
60 K, Crystal | 137.8
70 K, Crystal | 162.71
80 K, Crystal | 182.89
90 K, Crystal | 201.46
100 K, Crystal | 217.35
110 K, Crystal | 234.15
120 K, Crystal | 248.17
130 K, Crystal | 261.72
140 K, Crystal | 274.54
150 K, Crystal | 286.99
160 K, Crystal | 299.33
170 K, Crystal | 312.93
180 K, Crystal | 327.18
190 K, Crystal | 341.65
200 K, Crystal | 354.7
210 K, Crystal | 368.18
220 K, Crystal | 382.77
230 K, Crystal | 397.82
240 K, Crystal | 413.11
250 K, Crystal | 428.51
260 K, Crystal | 446.92
270 K, Crystal | 468.64
280 K, Crystal | 497.34
290 K, Crystal | 541.05
320 K, Liquid | 639
330 K, Liquid | 646.44
340 K, Liquid | 655.14
350 K, Liquid | 664.03

CCCCCCCC(=O)OC [methyl octanoate]
Settings | Molar enthalpy of transition or fusion [kcal/mol]
[1], Adiabatic calorimetry | 6.13

[2]
Settings | molar heat capacity at constant pressure [J/K/mol]
5 K, Crystal | 0.38
10 K, Crystal | 3.03
20 K, Crystal | 18.19
30 K, Crystal | 33.71
40 K, Crystal | 50.53
50 K, Crystal | 66.36
60 K, Crystal | 79.75
70 K, Crystal | 92.33
80 K, Crystal | 103.39
90 K, Crystal | 113.4
100 K, Crystal | 122.25
110 K, Crystal | 131.1
120 K, Crystal | 138.74
130 K, Crystal | 146.18
140 K, Crystal | 153.44
150 K, Crystal | 160.31
160 K, Crystal | 167.13
170 K, Crystal | 174.18
180 K, Crystal | 181.34
190 K, Crystal | 188.84
200 K, Crystal | 196.94
210 K, Crystal | 205.99
220 K, Crystal | 217.68
230 K, Crystal | 242.75
240 K, Liquid | 301.67
250 K, Liquid | 301.39
260 K, Liquid | 303.17
270 K, Liquid | 305.83
280 K, Liquid | 308.83
290 K, Liquid | 312.81
300 K, Liquid | 316.17
310 K, Liquid | 320.13
320 K, Liquid | 323.19
330 K, Liquid | 327.93
340 K, Liquid | 332.21
350 K, Liquid | 336.19

Settings | Triple point temperature [K]
[3] | 236.2
